For orientation: Km means the substrate concentration at which the rate is half of its maximum.

This test relates to D-pantolactone hydrolase purified from Fusarium oxysporum (IFO 5942). Kind of test: Substrate specificity (Km) and inhibition of purified D-pantolactone hydrolase. Particulars: for Km: purified enzyme, the compound is the substrate, read-out: Km (Michaelis constant). It is filed as biochemical.

Protocol: Fusarium oxysporum (IFO 5942) was inoculated into each of thirty 2l shake flasks each containing 500 ml of culture medium containing 5% sucrose, 0.4% sodium nitrate, 0.2% dipotassium monohydrogenphosphate, 0.05% magnesium sulfate, 0.05% potassium chloride, 0.001% ferric sulfate and 0.002% zinc sulfate (pH 6.0), and subjected to shaking culture at 28° C. for 7 days. The combined culture broths were centrifuged to give 800 g of wet mass of cells. The cells were triturated by means of a DYNO®-MILL with 2.5 l of 0.1 mM dithiothreitol-containing 20 mM Tris-HCl buffer (pH 7.4), and the mixture was centrifuged to give 2.3 l of cell-free extract. […] Furthermore, 572 g of potassium chloride were added to, and dissolved in, this cell-free extract and the mixture was loaded on an Octyl sepharose CL4B column (3×28 cm) and eluted with 3M potassium chloride. 2.4 l of eluted active fractions were dialyzed against 0.1 mM dithiothreitol-containing 20 mM Tris-HCl buffer (pH 7.4). The resultant 2.9 l of enzyme solution were loaded on a DEAE Sephacel column (5.5×34 cm) and eluted with a linear gradient of 0 to 0.5M potassium chloride. 255 ml of eluted active fractions were loaded on a hydroxyapatite column (5×10 cm) and eluted with a linear gradient of 0 to 0.88M potassium phosphate buffer (pH 7.0). 425 ml of eluted active fractions were subjected to ultrafiltration using an Amicon YM 10, and 115 ml of the resultant enzyme concentrate were dialyzed against 0.1 mM dithiothreitol-containing 20 mM Tris-HCl buffer (pH 7.4). 190 ml of the enzyme solution were subjected to ultrafiltration using an Amicon YM 30 and 14.5 ml of the resultant enzyme solution was loaded on a sephacryl S-300 column (2.5×95 cm) and eluted with 0.2M potassium chloride. 44.5 ml of eluted active fractions were dialyzed against 0.1 mM dithiothreitol-containing 20 mM Tris-HCl buffer (pH 7.4), then loaded on a Q sepharose Fast Flow column (1.8×3 cm) and eluted with a linear gradient of 0 to 1M potassium chloride. 7 ml of eluted active fractions were dialyzed against 0.1 mM dithiothreitol-containing 20 mM Tris-HCl buffer (pH 7.4) to obtain 6.8 ml of purified enzyme solution.
In determining enzyme activity, the enzyme activity which hydrolyzes 1 μmol of D-pantolactone in one minute under the conditions specified below was taken as one unit (U).
50 μl of enzyme solution were added to 200 μl of 10% D-pantolactone solution in 0.5M PIPES buffer (pH 7.0). After reaction at 30° C. for 120 minutes, 250 μl of 2 mM EDTA solution in methanol were added to stop the reaction. The resultant reaction mixture was subjected to HPLC (Nucleosil 5C18 4.6×150 mm; eluent 10% methanol; rate of flow 1 ml/min; detection wavelength 230 nm) to determine the % hydrolysis. For example, where the % hydrolysis is 1%, the enzyme activity/ml of enzyme solution corresponds to 1.6×10^-2 U/ml.
Values in parentheses are those for the activity of the respective metal ions at 2.5 mM concentration as measured with the activity value in the case of no addition of metal ions taken as 100.

For the molecule `O=C1O[C@@H]([C@H](O)CO)[C@H](O)[C@H]1O` [D-galactonolactone], the Km stood at 3.6 mM.
With `O=C1O[C@@H]([C@H](O)CO)[C@@H](O)[C@H]1O` [D-gulonolactone], the Km was 29 mM.
With `CC1(C)COC(=O)[C@@H]1O` [D-pantolactone], the Km amounted to 82 mM.
Turning to `O=C(O)CN(CCN(CC(=O)O)CC(=O)O)CC(=O)O` [EDTA, reference compound], the “Inhibition of enzyme activity” value (5 mM EDTA) was “inhibited completely”.
Take `O=C1O[C@@H]([C@@H](O)CO)[C@@H](O)[C@H]1O` [L-mannonolactone]: the Km was 23 mM.
